From patent publication US8716242B2, “β-hairpin peptidomimetics” (priority 2009, dated 2014)
Bridge positions count the residues as written; N and C are the ends. Square brackets hold non-standard residues; d marks the D form. Peptide text beside a SMILES is read from it. * marks the point of attachment. Myristoyl = CCCCCCCCCCCCCC(=O)*; Decanoyl = CCCCCCCCCC(=O)*; Octanoyl = CCCCCCCC(=O)*; Dab = NCC[C@H](N)C(=O)O

Columns and labels:
[1] = Plasma stability in human plasma; assay type: in vitro ADME
How it was run: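 Peptides (1 mM DMSO/H2O stock) were spiked into human or mouse plasma in triplicate and incubated at 37 °C, sampling from 0 to 1440 min. Samples were quenched in formic acid/acetonitrile and analysed by LC/MS MRM. Remaining percent of t=0 was calculated and T1/2 derived by trend fitting.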

[2] = Plasma stability in mouse plasma; assay type: in vitro ADME; conditions: for mouse pl. T1/2 / half-life at 10 μM: up to 1440 min; for half-life at 10 μM: read-out: mouse pl. T1/2
Description: (§1) Percent hemolysis was calculated as follows: (OD540peptide/OD540H2O)×100%. 2.6. Plasma Stability
The stability of the peptides in human and mouse plasma was determined by applying the following method: 346.5 μL/deep well of freshly thawed human plasma (Basler Blutspendedienst) and mouse plasma (Harlan Sera-Lab, UK), respectively, were spiked with 3.5 μL/well of compound dissolved in DMSO/H2O ([…] [v/v], 1 mM, triplicate) and incubated at 37° C. At t=0, 15, 30, 60, 120, 240 and 1440 min aliquots of 50 μL were transferred to filtration plate wells containing 150 μL/well of 2% formic acid in acetonitrile. Following shaking for 2 min the occurred suspensions were filtrated by vacuum and 50 μL of each filtrate was mixed with 100 μL of 1% formic acid in H2O. After transfer to a propylene microtiter plate, the filtrates were analyzed by LC/MS as follows: Column: Waters, XBridge C18, mobile phases: (A) water+0.1% formic acid and (B) acetonitrile/water, 95/5 (v/v)+0.1% formic acid, gradient: 5%-100% (B) in 2 minutes, electrospray ionization, MRM detection (triple quadrupole). The peak areas were determined and triplicate values are averaged. The stability is expressed in percent of the initial value at t=0. (tx/t0×100). By using the TREND function of EXCEL (Microsoft Office 2003) T1/2 were determined.

human CXCR4 = target: T1, human CXCR4 (Homo sapiens, UniProt P61073); assay: Ca2+-assay: CXCR4-antagonizing activity (SDF-1 induced calcium mobilization); assay type: cell-based; conditions: mouse pre-B cell line 300-19 transfected with human CXCR4; SDF-1 induced Ca2+ mobilization; read-out: IC50% [nM] ± SD, CXCR4 receptor
T1 construct: expressed in transfected cells; host or cells: mouse pre-B cell line 300-19
T1 sequence (P61073 whole entry): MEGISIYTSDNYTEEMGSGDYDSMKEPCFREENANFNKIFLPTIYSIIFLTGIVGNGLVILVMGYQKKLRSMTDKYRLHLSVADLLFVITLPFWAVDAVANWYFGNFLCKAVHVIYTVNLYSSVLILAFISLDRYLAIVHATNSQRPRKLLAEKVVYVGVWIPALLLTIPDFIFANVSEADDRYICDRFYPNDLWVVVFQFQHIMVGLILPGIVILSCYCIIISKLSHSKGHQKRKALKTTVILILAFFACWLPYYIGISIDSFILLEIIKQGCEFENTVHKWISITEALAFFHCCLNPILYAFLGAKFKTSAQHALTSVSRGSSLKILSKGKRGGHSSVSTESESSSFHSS
From the text: 2.3. Ca^2+-Assay: CXCR4-Antagonizing Activity of the Peptides
Increases in intracellular calcium were monitored using a Flexstation 384 (Molecular Devices, Sunnyvale, Calif.) to assay the peptides for CXCR4 antagonism in a mouse pre-B cell line 300-19 stably transfected with human CXCR4 (E. Oberlin, A. Amara, F. Bachelerie, C. Bessia, J.-L. Virelizier, F. Arenzana-Seisdedos, O, Schwartz, J.-M. Heard, I. Clark-Lewis, D. F. Legler, M. Loetscher, M. Baggiolini, B. Moser, Nature 1996, 382, 833-835; M. Loetscher, T. Geiser, T. O'Reilly, R. Zwalen, M. Baggiolini, B. Moser, J. Biol. Chem. 1994, 269, 232-237; M. D'Apuuo, A. Rolink, M. Loetscher, J. A. Hoxie, I. Clark-Lewis, F. Melchors, M. Baggiolini, B. Moser, Eur. J. Immunol. 1997, 27, 1788-1793). The cells were batch loaded with the Calcium 4 Assay kit (Molecular Devices) in assay buffer (Hanks Balanced salt solution [HBSS], 20 mM HEPES, pH 7.4, 0.1% BSA) for 1 h at room temperature and labeled cells were dispensed into black well assays plates (Costar No. 3603). Calcium mobilization induced by stromal-derived factor-1 (SDF-1) was measured in the Flexstation 384 (excitation: 485 nm; emission: 525 nm) for 90 seconds. Antagonist activity of peptides was determined by spiking the cells with compounds prior to SDF-1 addition. Dose response curves (compound concentration versus % maximum response for SDF-1) were determined for each antagonist and IC50 values were calculated by fitting the data to a four parameter logistic equation using SoftmaxPro 4.8 (Molecular Devices).

[3] = Cytotoxicity, MTT reduction assay, COS-7 cells; assay type: cell-based; conditions: African green monkey, COS-7 cells (CRL-1651), 12.5-50 μM
How it was run: (§2)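 HELA (4000/well) and COS-7 (3400/well) cells were grown 24 h, then exposed 48 h at 37° C to peptides at 12.5, 25 and 50 μM in triplicate. MTT reduction read at 595 nm; growth % relative to time-zero, and GI50 interpolated by trend line.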

[4] = system: human red blood cells (hRBC); assay: Hemolysis of human red blood cells; assay type: cell-based; conditions: 20% hRBC, 1 h, 37° C.
Description: The peptides were tested for their hemolytic activity against human red blood cells (hRBC). Fresh hRBC were washed three times with phosphate buffered saline (PBS) and centrifuged for 10 min at 2000×g. Compounds (100 μM) were incubated with 20% hRBC (v/v) for 1 h at 37° C. and shaking at 300 rpm. The final erythrocyte concentration was approximately 0.9×10^9 cells/mL. A value of 0% and 100% cell lyses, respectively, was determined by incubation of hRBC in the presence of PBS containing 0.001% acetic acid and 2.5% Triton X-100 in H2O, respectively. The samples were centrifuged, the supernatants were 8-fold diluted in PBS buffer and the optical densities (OD) were measured at 540 nm. The 100% lyses value (OD540H2O) gave an OD540 of approximately 0.5-1.0.
as §1

[5] = Cytotoxicity, MTT reduction assay, HELA cells; assay type: cell-based; conditions: human, HELA cells (Acc57), 12.5-50 μM
How it was run: as §2

[6] = human plasma, 37° C., 1440 min, read-out: human pl. cpd left at 1440 min
[7] = human plasma, 37° C., up to 1440 min
[8] = mouse plasma, 37° C., 1440 min, read-out: mouse pl. cpd left at 1440 min

Compound | remaining at 24 h, 10 μM [1, 6] [%] | human pl. T1/2 [1, 7] [h] | remaining at 24 h, 10 μM [2, 8] [%] | mouse pl. T1/2 ([2]; mouse plasma, 37° C.) [h] | IC50 (human CXCR4) [nM] | GI50 at 48 h [3] [µM] | Hemolysis at 100 μM [4] [%] | GI50 at 48 h [5] [µM] | half-life at 10 μM ([2]; mouse plasma, 37° C.) [h] | half-life at 10 μM ([1]; human plasma, 37° C., up to 1440 min, read-out: human pl. T1/2) [h] | remaining at 24 h, 10 μM ([1]; human, plasma) [%] | remaining at 24 h, 10 μM ([2]; mouse, plasma) [%]
CCCCCCCCCC(=O)NCC[C@@H]1NC(=O)[C@H](Cc2ccc(O)cc2)NC(=O)[C@@H]2CSSC[C@H](NC(=O)[C@H](C)NC(=O)[C@H](Cc3c[nH]cn3)NC(=O)[C@H](Cc3ccc(O)cc3)NC(=O)[C@@H]3CCCN3C(=O)[C@H]3CCCN3C(=O)[C@H](CCCCN)NC1=O)C(=O)N[C@@H](CCCNC(=N)N)C(=O)N[C@@H](C)C(=O)N1CCC[C@@H]1C(=O)N[C@@H](CCN)C(=O)N[C@@H](CCCNC(=N)N)C(=O)N[C@@H](Cc1ccc(O)cc1)C(=O)N2 [Ex. 10] (cyclo(YHACRA[dP][Dab]RYCY[Dab](Decanoyl)K[dP]P); disulfide 4-11) | 85 | 24 | 63 | 24 | 8.1 ± 0.9 | > 50 | 1.0 | > 50 |  |  |  | 
CCCCCCCC(=O)NCCCC[C@@H]1NC(=O)[C@H](Cc2ccc(O)cc2)NC(=O)[C@@H]2CSSC[C@H](NC(=O)[C@H](Cc3ccc(O)cc3)NC(=O)[C@H](Cc3c[nH]cn3)NC(=O)[C@H](Cc3ccc(O)cc3)NC(=O)[C@@H]3CCCN3C(=O)[C@H]3CCCN3C(=O)[C@H](CCCCN)NC1=O)C(=O)N[C@@H](CO)C(=O)N[C@@H](C)C(=O)N1CCC[C@@H]1C(=O)N[C@@H](CCN)C(=O)N[C@@H](CCCNC(=N)N)C(=O)N[C@@H](Cc1ccc(O)cc1)C(=O)N2 [Ex. 12] (cyclo(YHYCSA[dP][Dab]RYCYK(Octanoyl)K[dP]P); disulfide 4-11) | 88 | 24 | 46 |  | 1.8 ± 1 | > 50 | 0.2 | > 50 | 7 |  |  | 
CCCCCCCC(=O)NCCCC[C@@H]1NC(=O)[C@H](Cc2ccc(O)cc2)NC(=O)[C@@H]2CSSC[C@H](NC(=O)[C@H](Cc3ccc(O)cc3)NC(=O)[C@H](Cc3c[nH]cn3)NC(=O)[C@H](Cc3ccc(O)cc3)NC(=O)[C@@H]3CCCN3C(=O)[C@@H](Cc3ccc(O)cc3)NC(=O)[C@H](CCCCN)NC1=O)C(=O)N[C@@H](CO)C(=O)N[C@@H](C)C(=O)N1CCC[C@@H]1C(=O)N[C@@H](CCN)C(=O)N[C@@H](CCCNC(=N)N)C(=O)N[C@@H](Cc1ccc(O)cc1)C(=O)N2 [Ex. 13] (cyclo(A[dP][Dab]RYCYK(Octanoyl)K[dY]PYHYCS); disulfide 6-15) | 100 | 24 | 72 |  | 6.3 ± 2.7 | > 50 | 1.2 | > 50 | 22.4 |  |  | 
CCCCCCCCCC(=O)NCCCC[C@@H]1NC(=O)[C@H](Cc2ccc(O)cc2)NC(=O)[C@@H]2CSSC[C@H](NC(=O)[C@H]([C@@H](C)O)NC(=O)[C@H](Cc3c[nH]cn3)NC(=O)[C@H](Cc3ccc(O)cc3)NC(=O)[C@@H]3CCCN3C(=O)[C@H]3CCCN3C(=O)[C@H](CCCCN)NC1=O)C(=O)N[C@@H](CCCNC(=N)N)C(=O)N[C@@H](C)C(=O)N[C@H](Cc1ccc(O)cc1)C(=O)N[C@@H](CCN)C(=O)N[C@@H](CCCNC(=N)N)C(=O)N[C@@H](Cc1ccc(O)cc1)C(=O)N2 [Ex. 14] (cyclo(YHTCRA[dY][Dab]RYCYK(Decanoyl)K[dP]P); disulfide 4-11) | 91 | 24 | 23 |  | 40.8 ± 12 | > 50 | 0.6 | > 50 | 9.42 |  |  | 
CCCCCCCCCC(=O)NCCCC[C@@H]1NC(=O)[C@H](Cc2ccc(O)cc2)NC(=O)[C@@H]2CSSC[C@H](NC(=O)[C@H]([C@@H](C)O)NC(=O)[C@H](Cc3c[nH]cn3)NC(=O)[C@H](Cc3ccc(O)cc3)NC(=O)[C@@H]3CCCN3C(=O)[C@@H](Cc3ccc(O)cc3)NC(=O)[C@H](CCCCN)NC1=O)C(=O)N[C@@H](CCCNC(=N)N)C(=O)N[C@@H](C)C(=O)N1CCC[C@@H]1C(=O)N[C@@H](CCN)C(=O)N[C@@H](CCCNC(=N)N)C(=O)N[C@@H](Cc1ccc(O)cc1)C(=O)N2 [Ex. 16] (cyclo(YHTCRA[dP][Dab]RYCYK(Decanoyl)K[dY]P); disulfide 4-11) |  |  |  |  | 18.2 ± 11 | > 50 | 0.5 | > 50 | 10.3 | 19.9 | 48 | 35
CCCCCCCCCCCCCC(=O)NCCCC[C@@H]1NC(=O)[C@H](Cc2ccc(O)cc2)NC(=O)[C@@H]2CSSC[C@H](NC(=O)[C@H](Cc3ccc(O)cc3)NC(=O)[C@H](Cc3c[nH]cn3)NC(=O)[C@H](Cc3ccc(O)cc3)NC(=O)[C@@H]3CCCN3C(=O)[C@H]3CCCN3C(=O)[C@H](CCCCN)NC1=O)C(=O)N[C@@H](CO)C(=O)N[C@@H](C)C(=O)N1CCC[C@@H]1C(=O)N[C@@H](CCN)C(=O)N[C@@H](CCCNC(=N)N)C(=O)N[C@@H](Cc1ccc(O)cc1)C(=O)N2 [Ex. 18] (cyclo(YHYCSA[dP][Dab]RYCYK(Myristoyl)K[dP]P); disulfide 4-11) | 71 | 24 | 78 | 24 | 15.7 ± 3.9 | > 50 | 9.2 | > 25 |  |  |  | 
CCCCCCCCCCCCCC(=O)NCCCC[C@@H]1NC(=O)[C@H](Cc2ccc(O)cc2)NC(=O)[C@@H]2CSSC[C@H](NC(=O)[C@H](C)NC(=O)[C@H](Cc3c[nH]cn3)NC(=O)[C@H](Cc3ccc(O)cc3)NC(=O)[C@@H]3CCCN3C(=O)[C@H]3CCCN3C(=O)[C@H](CCCCN)NC1=O)C(=O)N[C@@H](CCCNC(=N)N)C(=O)N[C@@H](C)C(=O)N1CCC[C@@H]1C(=O)N[C@@H](CCN)C(=O)N[C@@H](CCCNC(=N)N)C(=O)N[C@@H](Cc1ccc(O)cc1)C(=O)N2 [Ex. 19] (cyclo(YHACRA[dP][Dab]RYCYK(Myristoyl)K[dP]P); disulfide 4-11) | 99 | 24 | 76 | 24 | 9.1 ± 4.2 | > 50 | 1.2 | > 32 |  |  |  | 
